Four compounds from patent publication US8937062B2, “Compositions and methods for treating, reducing, ameliorating, or preventing infections caused by antibacterial drug-resistant bacteria” (Bausch & Lomb Incorporated, priority 2007, dated 2015) can be followed below.

Format in all cases: cell-based
The test system of assay [1] is APC-resistant Haemophilus influenza. In words: MIC90, agar plate dilution method (NCCLS), Table 2. Particulars: for MIC90: Haemophilus. How it is done: (§1) The MIC90 values for this test were determined by the agar plate dilution method according to the National Committee for Clinical Laboratory Standards (“NCCLS”).
In assay [2] the test system is GM-resistant P. aeruginosa. In words: MIC90, agar plate dilution method (NCCLS), Table 2. Particulars: 10 isolates. The procedure: as §1
Assay [3] deals with GM-resistant S. aureus. In words: MIC90, agar plate dilution method (NCCLS), Table 2. The conditions noted are these: Staphylococcus aureus, 10 isolates, read-out: MIC90 Geometric Mean. How it is done:
as §1

The subject of assay [4] is OFLX-resistant Enterobacteriaceae. In words: MIC90, agar plate dilution method (NCCLS), Table 2. The procedure: as §1
Assay [5] has as its system OFLX-resistant S. aureus. In words: MIC90, agar plate dilution method (NCCLS), Table 2. The conditions noted are these: Staphylococcus aureus, 10 isolates, read-out: MIC90 Geometric Mean. How it is done:
as §1

The subject of assay [6] is PCG-resistant S. pneumoniae. In words: MIC90, agar plate dilution method (NCCLS), Table 2. The conditions noted are these: 10 isolates. How it is done:
as §1

Assay [7] has as its system E. cloacae, extended-spectrum β-lactamase positive. Description: MIC90, broth microdilution (CLSI M7-A7), Table 4. Particulars: Enterobacter cloacae, 15 isolates. The procedure: (§2) The MIC90 values were determined according to the broth microdilution method outlined in the Clinical and Laboratory Standards Institute Approved Standard M7-A7 (2006).
For assay [8], the system named is H. influenzae, β-lactamase positive, ampicillin-resistant. In words: MIC90, broth microdilution (CLSI M7-A7), Table 4. The conditions noted are these: 25 isolates; for MIC90: Haemophilus influenzae. How it is done: as §2
(In broth dilution the organism is exposed to a series of concentrations in liquid medium.)

The subject of assay [9] is H. influenzae, β-lactamase positive. In words: MIC90, broth microdilution (CLSI M7-A7), Table 4. Particulars: 53 isolates; for MIC90: Haemophilus influenzae. The procedure: as §2
In assay [10] the test system is S. aureus, methicillin- and ciprofloxacin-resistant. In words: MIC90, broth microdilution (CLSI M7-A7), Table 4. Particulars: Staphylococcus aureus, 24 isolates. How it is done:
as §2

Assay [11] has as its system S. aureus, methicillin-resistant and ciprofloxacin-sensitive. In words: MIC90, broth microdilution (CLSI M7-A7), Table 4. Particulars: 25 isolates; for MIC90: Staphylococcus aureus. How it is done:
as §2

The subject of assay [12] is S. aureus, vancomycin-intermediately resistant. In words: MIC90, broth microdilution (CLSI M7-A7), Table 4. Particulars: Staphylococcus aureus, 23 isolates. How it is done:
as §2

Assay [13] has as its system S. aureus, vancomycin-resistant. In words: MIC90, broth microdilution (CLSI M7-A7), Table 4. Particulars: Staphylococcus aureus, 3 isolates, read-out: MIC90 Geometric Mean. How it is done:
as §2

Assay [14] has as its system S. epidermidis, methicillin-resistant. In words: MIC90, broth microdilution (CLSI M7-A7), Table 4. Particulars: Staphylococcus epidermidis, 64 isolates. The procedure: as §2
For assay [15], the system named is S. pneumoniae, levofloxacin-resistant. In words: MIC90, broth microdilution (CLSI M7-A7), Table 4. Particulars: Streptococcus pneumoniae, 25 isolates. The procedure:
as §2

Assay [16] concerns S. pneumoniae, penicillin-intermediately resistant. In words: MIC90, broth microdilution (CLSI M7-A7), Table 4. The conditions noted are these: Streptococcus pneumoniae, 26 isolates. How it is done:
as §2

Assay [17] has as its system S. pneumoniae, penicillin-resistant. Description: MIC90, broth microdilution (CLSI M7-A7), Table 4. The conditions noted are these: 26 isolates; for MIC90: Streptococcus pneumoniae. How it is done: as §2
In assay [18] the test system is S. aureus Clinical Isolates. In words: In vitro activity against clinical isolates, sixth test, Table 7. The conditions noted are these: Staphylococcus aureus, 49 isolates.
The subject of assay [19] is S. pneumoniae Clinical Isolates. The assay is described as above. The conditions noted are these: 78 isolates; for MIC90: Streptococcus pneumoniae.

≈ marks a conversion by molar mass, not a printed value. Where two headings read alike, the source gives them in different places.

`O=C(O)c1cn(C2CC2)c2cc(N3CCNCC3)c(F)cc2c1=O` [CPLX, ciprofloxacin]: the “MIC90 Range” value in [1] (APC-resistant Haemophilus influenza., 10 isolates) is “≦0.06 μg/ml”; in assay [2], 0.13 to 32 µg/mL; in [4] (OFLX-resistant Enterobacteriaceae, 10 isolates), 4 to 32 µg/mL; in [6] it was 0.5 to 2 µg/mL. For the same compound, the MIC90 in assay [1] (read-out: MIC90 Geometric Mean) was at most 0.06 µg/mL; in assay [1] (read-out: MIC90 Value), at most 0.06 µg/mL; in assay [2] (Pseudomonas aeruginosa, read-out: MIC90 Geometric Mean) it was 1.87 µg/mL (≈ 5.64 µM); in assay [3], 26 µg/mL (≈ 78.5 µM); in assay [4] (read-out: MIC90 Geometric Mean) it was 10.6 µg/mL (≈ 32 µM); in [5] it was 147 µg/mL (≈ 444 µM).
Take `COc1c(N2CCNC(C)C2)c(F)cc2c(=O)c(C(=O)O)cn(C3CC3)c12` (stereo not shown) [GTFX, gatifloxacin]: the MIC90 in assay [7] (read-out: MIC90 Geometric Mean) was 1.58 µg/mL (≈ 4.21 µM); in [7] (read-out: MIC90 Value) it was above 8 µg/mL; in assay [8] (read-out: MIC90 Geometric Mean), 0.022 µg/mL (≈ 0.0586 µM); in assay [8] (read-out: MIC90 Value), 0.03 µg/mL (≈ 0.0799 µM); in assay [9] (read-out: MIC90 Geometric Mean) it was 0.014 µg/mL (≈ 0.0373 µM); in [9] (read-out: MIC90 Value), 0.03 µg/mL (≈ 0.0799 µM). In addition, the MIC90 is above 8 µg/mL in assay [10] (read-out: MIC90 Geometric Mean); above 8 µg/mL in assay [10] (read-out: MIC90 Value); 0.099 µg/mL (≈ 0.264 µM) in assay [11] (read-out: MIC90 Geometric Mean); 0.12 µg/mL (≈ 0.32 µM) in [11] (read-out: MIC90 Value); 3.65 µg/mL (≈ 9.72 µM) in assay [12] (read-out: MIC90 Geometric Mean); 8 µg/mL (≈ 21.3 µM) in [12] (read-out: MIC90 Value). Besides, the MIC90 in assay [13] was 6.35 µg/mL (≈ 16.9 µM); in [14] (read-out: MIC90 Geometric Mean), 1.43 µg/mL (≈ 3.8 µM); in assay [14] (read-out: MIC90 Value) it was above 8 µg/mL; in assay [15] (read-out: MIC90 Geometric Mean), 5.43 µg/mL (≈ 14.5 µM); in assay [15] (read-out: MIC90 Value), above 8 µg/mL; in assay [16] (read-out: MIC90 Geometric Mean), 0.344 µg/mL (≈ 0.916 µM). The MIC90 is 0.5 µg/mL (≈ 1.33 µM) in assay [16] (read-out: MIC90 Value); 0.293 µg/mL (≈ 0.781 µM) in [17] (read-out: MIC90 Geometric Mean); 0.5 µg/mL (≈ 1.33 µM) in assay [17] (read-out: MIC90 Value); 2 µg/mL (≈ 5.33 µM) in assay [18]; 0.25 µg/mL (≈ 0.666 µM) in [19]. Besides, the “MIC90 Range” value in assay [8] was in the range of 0.008 to 0.06 µg/mL; in assay [11], 0.03 to 8 µg/mL; in assay [17], 0.12 to 0.5 µg/mL; in assay [19] it was 0.12 to 0.5 µg/mL.
Regarding `C[C@H]1COc2c(N3CCN(C)CC3)c(F)cc3c(=O)c(C(=O)O)cn1c23` [LVFX, levofloxacin], the MIC90 in assay [18] came out at 4 µg/mL (≈ 11.1 µM). In [19], the “MIC90 Range” value was in the range of 0.5 to 2 µg/mL and the MIC90 came out at 1 µg/mL (≈ 2.77 µM).
`COc1c(N2C[C@@H]3CCCN[C@@H]3C2)c(F)cc2c(=O)c(C(=O)O)cn(C3CC3)c12` [MOFX, moxifloxacin]: the MIC90 in assay [7] (read-out: MIC90 Geometric Mean) was 2.75 µg/mL (≈ 6.85 µM); in [7] (read-out: MIC90 Value), above 8 µg/mL; in assay [8] (read-out: MIC90 Geometric Mean), 0.047 µg/mL (≈ 0.117 µM); in [8] (read-out: MIC90 Value), 0.12 µg/mL (≈ 0.299 µM); in assay [9] (read-out: MIC90 Geometric Mean) it was 0.03 µg/mL (≈ 0.0747 µM); in assay [9] (read-out: MIC90 Value) it was 0.06 µg/mL (≈ 0.149 µM). Besides, the MIC90 in assay [10] (read-out: MIC90 Geometric Mean) was 6.92 µg/mL (≈ 17.2 µM); in assay [10] (read-out: MIC90 Value), above 8 µg/mL; in [11] (read-out: MIC90 Geometric Mean), 0.057 µg/mL (≈ 0.142 µM); in assay [11] (read-out: MIC90 Value) it was 0.12 µg/mL (≈ 0.299 µM); in [12] (read-out: MIC90 Geometric Mean), 2.69 µg/mL (≈ 6.7 µM); in [12] (read-out: MIC90 Value), 8 µg/mL (≈ 19.9 µM). Also, the MIC90 in assay [13] was 6.35 µg/mL (≈ 15.8 µM); in assay [14] (read-out: MIC90 Geometric Mean), 1.12 µg/mL (≈ 2.8 µM); in assay [14] (read-out: MIC90 Value), above 8 µg/mL; in [15] (read-out: MIC90 Geometric Mean), 3.68 µg/mL (≈ 9.17 µM); in [15] (read-out: MIC90 Value), above 8 µg/mL; in assay [16] (read-out: MIC90 Geometric Mean), 0.209 µg/mL (≈ 0.521 µM). The MIC90 in assay [16] (read-out: MIC90 Value) came to 0.25 µg/mL (≈ 0.623 µM); in [17] (read-out: MIC90 Geometric Mean), 0.217 µg/mL (≈ 0.541 µM); in assay [17] (read-out: MIC90 Value), 0.25 µg/mL (≈ 0.623 µM); in assay [19], 0.12 µg/mL (≈ 0.299 µM). The “MIC90 Range” value lay in the range of 0.015 to 0.12 µg/mL in assay [8]; 0.015 to 0.06 µg/mL in [9]; 0.015 to 8 µg/mL in assay [11]; 0.06 to 0.25 µg/mL in assay [17]; 0.06 to 0.25 µg/mL in assay [19].
